Among the data in patent publication US20200131669A1, “CYCLIC PEPTIDE COMPOUND HAVING HIGH MEMBRANE PERMEABILITY, AND LIBRARY CONTAINING SAME” (Chugai Seiyaku Kabushiki Kaisha, priority 2017, published 2020) are Papp A→B values, retold here.

Molecules are shown by their SMILES. Starred links: 1 amine or outer side, 2 acyl side, 3 side chain; linkers in the order of their positions; H or OH if unused. Positions of bridges follow the written chain, without caps; N, C: chain ends. Non-standard residues stand in square brackets, D forms with d. Residues, ends and D or L forms follow the SMILES beside them. ξ: configuration not given here. *: point of attachment. hPhe(3-Cl) = N[C@@H](CCc1cccc(Cl)c1)C(=O)O; hPhe(4-Cl) = N[C@@H](CCc1ccc(Cl)cc1)C(=O)O; X14 = O=C([C@H](CCc1ccccc1Cl)N[*:1])[*:2]; hhPhe = N[C@@H](CCCc1ccccc1)C(=O)O; Hyp = O=C(O)[C@@H]1C[C@@H](O)CN1; NMeF = CN[C@@H](Cc1ccccc1)C(=O)O; NMeI = CC[C@H](C)[C@H](NC)C(=O)O; NMeL = CN[C@@H](CC(C)C)C(=O)O; NMeV = CN[C@H](C(=O)O)C(C)C; NMeA = CN[C@@H](C)C(=O)O; Piperidide = C1CCN(*)CC1; dNMeA = CN[C@H](C)C(=O)O; Bn = c1ccc(C*)cc1; ξS = NC(CO)C(=O)O; Sar = CNCC(=O)O; tBu = CC(C)(C)*

The first series can be described thus: Caco-2 membrane permeability, improved method as used in the following Examples (96-well, 20 to 24 h preincubation). Format: in vitro ADME. As to conditions: Caco-2, Caco-2. A digest of the protocol: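 Caco-2 monolayers were grown three weeks and preincubated 20–24 h at 37 °C with compound in DMEM+FaSSIF (1% DMSO) apically. The assay then used compound in FaSSIF/HBSS (1% DMSO, pH 6.0) apically and HBSS with 4% BSA (pH 7.4) basally. Basal samples were taken at 180 min for LC/MS, and Papp (cm/sec) was calculated.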
For orientation: Passage across Caco-2 layers is used to estimate intestinal permeability.
On to `CC[C@H](C)[C@@H]1NC(=O)[C@H](Cc2ccccc2)N(C)C(=O)CN(C)C(=O)C[C@@H](C(=O)N2CCCCC2)NC(=O)[C@H](C(C)C)N(C)C(=O)[C@H](CCc2ccc(Cl)cc2)NC(=O)[C@H](CC(C)C)N(C)C(=O)[C@H](CC(C)C)N(C)C(=O)CN(C)C(=O)[C@H]([C@@H](C)O)NC(=O)[C@H](CC(C)C)N(C)C1=O` [pd362] ([Sar][NMeF]I[NMeL]T[Sar][NMeL][NMeL][hPhe(4-Cl)][NMeV]D-Piperidide; lactam N-11), for which the Papp A→B came to 1 ×10⁻⁶ cm/s.
The same measure, in the same setting: the value for `CC(C)C[C@H]1C(=O)N[C@@H](CCCc2ccccc2)C(=O)N(C)[C@@H](Cc2ccccc2)C(=O)N(C)[C@@H](C(C)C)C(=O)N[C@H](C(=O)N2CCCCC2)CC(=O)N[C@H](C)C(=O)N(C)[C@@H](Cc2ccccc2)C(=O)N[C@@H](C(C)C)C(=O)N(C)[C@@H](CC(C)C)C(=O)N[C@@H]([C@@H](C)O)C(=O)N(C)CC(=O)N1C` [pd364] ([dA][NMeF]V[NMeL]T[Sar][NMeL][hhPhe][NMeF][NMeV]D-Piperidide; lactam N-11) was 1 ×10⁻⁶ cm/s.

The series is the same for the next values; noted with them: human, Caco-2, Caco-2.
In turn, `CC[C@H](C)[C@H]1C(=O)N[C@@H]([C@@H](C)O)C(=O)N(C)CC(=O)N(C)[C@@H](CC(C)C)C(=O)N[C@H](C(=O)N2CCCCC2)CC(=O)N(C)[C@@H](C)C(=O)N[C@@H](CCc2ccccc2Cl)C(=O)N(C)[C@@H](CC(C)C)C(=O)N(C)[C@@H](CC(C)C)C(=O)N[C@@H](C)C(=O)N(C)[C@@H](Cc2ccccc2)C(=O)N1C` [pd352] ([NMeA][X14][NMeL][NMeL]A[NMeF][NMeI]T[Sar][NMeL]D-Piperidide; lactam N-11) registered a Papp A→B at 180 min of 1.4 ×10⁻⁶ cm/s.
The molecule `CC(C)C[C@H]1C(=O)N[C@H](C(=O)N2CCCCC2)CC(=O)N(C)[C@@H](C)C(=O)N[C@@H](CCc2ccccc2Cl)C(=O)N(C)[C@@H](CC(C)C)C(=O)N(C)[C@@H](CC(C)C)C(=O)N[C@@H](C)C(=O)N(C)[C@@H](Cc2ccccc2)C(=O)N(C)[C@@H](C(C)C)C(=O)N[C@@H]([C@@H](C)O)C(=O)N(C)CC(=O)N1C` [pd353] ([NMeA][X14][NMeL][NMeL]A[NMeF][NMeV]T[Sar][NMeL]D-Piperidide; lactam N-11) showed a Papp A→B at 180 min of 1.4 ×10⁻⁶ cm/s.
In turn, `CC[C@H](C)[C@@H]1NC(=O)[C@H](Cc2ccccc2)N(C)C(=O)CN(C)C(=O)C[C@@H](C(=O)N2CCCCC2)NC(=O)[C@H](C(C)C)N(C)C(=O)[C@H](CCc2ccccc2Cl)NC(=O)[C@H](CC(C)C)N(C)C(=O)[C@H](CC(C)C)N(C)C(=O)CN(C)C(=O)[C@H]([C@@H](C)O)NC(=O)[C@H](CC(C)C)N(C)C1=O` [pd354] ([Sar][NMeF]I[NMeL]T[Sar][NMeL][NMeL][X14][NMeV]D-Piperidide; lactam N-11) came in with a Papp A→B at 180 min of 1.5 ×10⁻⁶ cm/s.
The same measure, in the same setting: the value for `CC(C)C[C@@H]1NC(=O)[C@H](CC(C)C)N(C)C(=O)CN(C)C(=O)[C@H]([C@@H](C)O)NC(=O)[C@H](CC(C)C)N(C)C(=O)[C@H](CCc2cccc(Cl)c2)NC(=O)[C@H](C)N(C)C(=O)[C@@H](C(C)C)NC(=O)C[C@@H](C(=O)N2CCCCC2)NC(=O)[C@H](C(C)C)N(C)C(=O)[C@H](Cc2ccccc2)N(C)C1=O` [pd355] ([dV][NMeA][hPhe(3-Cl)][NMeL]T[Sar][NMeL]L[NMeF][NMeV]D-Piperidide; lactam N-11) was 2.3 ×10⁻⁶ cm/s; that for `CC(C)C[C@H]1C(=O)N[C@H](C(=O)N2CCCCC2)CC(=O)N(C)[C@@H](C)C(=O)N[C@@H](CCc2cccc(Cl)c2)C(=O)N(C)[C@@H](CC(C)C)C(=O)N(C)[C@@H](CC(C)C)C(=O)N[C@@H](C)C(=O)N(C)[C@@H](Cc2ccccc2)C(=O)N(C)[C@@H](C(C)C)C(=O)N[C@@H]([C@@H](C)O)C(=O)N(C)CC(=O)N1C` [pd356] ([NMeA][hPhe(3-Cl)][NMeL][NMeL]A[NMeF][NMeV]T[Sar][NMeL]D-Piperidide; lactam N-11) was 1.2 ×10⁻⁶ cm/s; that for `CC(C)C[C@H]1C(=O)N[C@@H](CCc2cccc(Cl)c2)C(=O)N(C)[C@@H](CC(C)C)C(=O)N[C@@H]([C@@H](C)O)C(=O)N(C)CC(=O)N(C)[C@@H](Cc2ccccc2)C(=O)N(C)[C@@H](CC(C)C)C(=O)N[C@@H](COC(C)(C)C)C(=O)N(C)[C@@H](C(C)C)C(=O)N[C@H](C(=O)N2CCCCC2)CC(=O)N(C)CC(=O)N1C` [pd357] ([Sar][NMeL][hPhe(3-Cl)][NMeL]T[Sar][NMeF][NMeL]S(tBu)[NMeV]D-Piperidide; lactam N-11) was 1.3 ×10⁻⁶ cm/s.
In turn, `CC(C)C[C@@H]1NC(=O)[C@H](CC(C)C)N(C)C(=O)CN(C)C(=O)[C@H]([C@@H](C)O)NC(=O)[C@H](CC(C)C)N(C)C(=O)[C@H](CCc2ccc(Cl)cc2)NC(=O)[C@H](C)N(C)C(=O)[C@@H](C(C)C)NC(=O)C[C@@H](C(=O)N2CCCCC2)NC(=O)[C@H](C(C)C)N(C)C(=O)[C@H](Cc2ccccc2)N(C)C1=O` [pd360] ([dV][NMeA][hPhe(4-Cl)][NMeL]T[Sar][NMeL]L[NMeF][NMeV]D-Piperidide; lactam N-11) had a Papp A→B at 180 min of 1.6 ×10⁻⁶ cm/s.
Still for that read-out and setting: then `CC(C)C[C@H]1C(=O)N[C@H](C(=O)N2CCCCC2)CC(=O)N(C)[C@@H](C)C(=O)N[C@@H](CCCc2ccccc2)C(=O)N(C)[C@@H](CC(C)C)C(=O)N(C)[C@@H](Cc2ccccc2)C(=O)N[C@@H](C)C(=O)N(C)[C@@H](Cc2ccccc2)C(=O)N(C)[C@@H](C(C)C)C(=O)N[C@@H]([C@@H](C)O)C(=O)N(C)CC(=O)N1C` [pd365] ([NMeA][hhPhe][NMeL][NMeF]A[NMeF][NMeV]T[Sar][NMeL]D-Piperidide; lactam N-11), with 1.5 ×10⁻⁶ cm/s; and `CC[C@H](C)[C@H]1C(=O)N[C@H](C(=O)N2CCCCC2)CC(=O)N(C)CC(=O)N(C)[C@@H](Cc2ccccc2)C(=O)N[C@@H](CCCc2ccccc2)C(=O)N(C)[C@@H](CC(C)C)C(=O)N[C@@H]([C@@H](C)O)C(=O)N(C)CC(=O)N(C)[C@@H](Cc2ccccc2)C(=O)N(C)[C@@H](CC(C)C)C(=O)N[C@@H](COC(C)(C)C)C(=O)N1C` [pd366] ([Sar][NMeF][hhPhe][NMeL]T[Sar][NMeF][NMeL]S(tBu)[NMeI]D-Piperidide; lactam N-11), with 1.8 ×10⁻⁶ cm/s; and `CC[C@H](C)[C@@H]1NC(=O)[C@H](Cc2ccccc2)N(C)C(=O)CN(C)C(=O)C[C@@H](C(=O)N2CCCCC2)NC(=O)[C@H](C)N(C)C(=O)[C@H](CCCc2ccccc2)NC(=O)[C@H](CC(C)C)N(C)C(=O)[C@H](Cc2ccccc2)N(C)C(=O)CN(C)C(=O)[C@H]([C@@H](C)O)NC(=O)[C@H](CC(C)C)N(C)C1=O` [pd367] ([Sar][NMeF]I[NMeL]T[Sar][NMeF][NMeL][hhPhe][NMeA]D-Piperidide; lactam N-11), with 1.5 ×10⁻⁶ cm/s.
Molecule `CC(C)C[C@H]1C(=O)N[C@@H]([C@@H](C)O)C(=O)N(C)CC(=O)N(C)[C@@H](Cc2ccccc2)C(=O)N(C)[C@@H](CC(C)C)C(=O)N[C@@H](COC(C)(C)C)C(=O)N(C)[C@@H](CC(C)C)C(=O)N[C@H](C(=O)N2CCCCC2)CC(=O)N(C)CC(=O)N(C)[C@@H](Cc2ccccc2)C(=O)N[C@@H](COCc2ccccc2)C(=O)N1C` [pd369] ([Sar][NMeF]S(Bn)[NMeL]T[Sar][NMeF][NMeL]S(tBu)[NMeL]D-Piperidide; lactam N-11) yielded a Papp A→B at 180 min of 3 ×10⁻⁶ cm/s.
On the same count and under the same terms, then `CC[C@H](C)[C@@H]1NC(=O)[C@H](Cc2ccccc2)N(C)C(=O)CN(C)C(=O)C[C@@H](C(=O)N2CCCCC2)NC(=O)[C@H]([C@@H](C)CC)N(C)C(=O)C(COCc2ccccc2)NC(=O)[C@H](CC(C)C)N(C)C(=O)[C@H](Cc2ccccc2)N(C)C(=O)CN(C)C(=O)[C@H]([C@@H](C)O)NC(=O)[C@H](CC(C)C)N(C)C1=O` (stereo partly drawn) [pd370] ([Sar][NMeF]I[NMeL]T[Sar][NMeF][NMeL][ξS](Bn)[NMeI]D-Piperidide; lactam N-11), with 2.5 ×10⁻⁶ cm/s; and `CCO[C@@H]1C[C@H]2C(=O)N(C)[C@@H](CC(C)C)C(=O)N[C@@H]([C@@H](C)CC)C(=O)N(C)[C@@H](CC(C)C)C(=O)N[C@@H](CC(C)C)C(=O)N[C@H](C(=O)N3CCCCC3)CC(=O)N(C)[C@H](C)C(=O)N(C)[C@@H](CC(C)C)C(=O)N[C@@H](CC(C)C)C(=O)N(C)[C@@H](CC(C)C)C(=O)N[C@@H]([C@@H](C)O)C(=O)N2C1` [pd371] ([dNMeA][NMeL]L[NMeL]T[Hyp](Et)[NMeL]I[NMeL]LD-Piperidide; lactam N-11), with 3.4 ×10⁻⁶ cm/s; and `CCO[C@@H]1C[C@H]2C(=O)N(C)[C@@H](CC(C)C)C(=O)N[C@@H]([C@@H](C)O)C(=O)N(C)[C@@H](Cc3ccccc3)C(=O)N[C@@H](Cc3ccccc3)C(=O)N(C)[C@@H](CC(C)C)C(=O)N[C@H](C(=O)N3CCCCC3)CC(=O)N[C@H](CC(C)C)C(=O)N3CCC[C@H]3C(=O)N[C@@H](COC(C)(C)C)C(=O)N(C)[C@@H](CC(C)C)C(=O)N2C1` [pd372] ([dL]PS(tBu)[NMeL][Hyp](Et)[NMeL]T[NMeF]F[NMeL]D-Piperidide; lactam N-11), with 1.4 ×10⁻⁶ cm/s.

Staying with this series, now noted: human; Papp, Caco-2 membrane permeability, improved method; read-out: Caco-2.
As for `CC(C)C[C@@H]1NC(=O)[C@H](C)N(C)C(=O)C[C@@H](C(=O)N2CCCCC2)NC(=O)[C@H](CC(C)C)N(C)C(=O)CN(C)C(=O)[C@H]([C@@H](C)O)NC(=O)[C@H](C)N(C)C(=O)[C@H](Cc2ccccc2)N(C)C(=O)[C@H](COCc2ccccc2)NC(=O)[C@H](Cc2ccccc2)N(C)C(=O)[C@H](CC(C)C)N(C)C1=O` [pd368] ([NMeA]L[NMeL][NMeF]S(Bn)[NMeF][NMeA]T[Sar][NMeL]D-Piperidide; lactam N-11), the Papp A→B at 180 min was found to be 2 ×10⁻⁶ cm/s.
